For 26 molecules, melting point results are on record in US7989445B2, “Thienopyrimidone compound” (Takeda Pharmaceutical Company Limited, priority 2005, dated 2011).

Counter-ions that a name gives are not always drawn. Where only a bound is given, the exact number is not on record here.

As a reminder, the melting point is the temperature, or range, at which the solid turns liquid. In the case of `CC(=O)N(C)Cc1ccc(C(=O)Cn2cnc3cc(-c4ccc(Cl)cc4)sc3c2=O)cc1` [Example 14, N-(4-{[6-(4-chlorophenyl)-4-oxothieno[3,2-d]pyrimidin-3(4H) -yl]acetyl}benzyl)-N-methylacetamide], the melting point was 250 to 251 °C.
As for `CCN1CCN(Cc2ccc(CCn3cnc4cc(-c5ccc(Cl)cc5)sc4c3=O)cc2)C(=O)C1=O` [Example 34, 1-(4-{2-[6-(4-chlorophenyl)-4-oxothieno[3,2-d]pyrimidin-3(4H) -yl]ethyl}benzyl)-4-ethylpiperazine-2,3-dione], the figure is 285 to 288 °C.
As for `O=C1CCCCN1Cc1ccc(CCn2cnc3cc(-c4ccc(Cl)cc4)sc3c2=O)cc1` [Example 25, 6-(4-chlorophenyl)-3-(2-{4-[(2-oxopiperidin-1-yl)methyl]phenyl}ethyl)thieno[3,2-d]pyrimidin-4(3H)-one], the figure is 199 to 201 °C; as for `CC(c1ccc(CCn2cnc3cc(-c4ccc(Cl)cc4)sc3c2=O)cc1)N1CC[C@H](F)C1` (stereo partly drawn) [Example 19, 6-(4-chlorophenyl)-3-[2-[4-[1-[(3S)-3-fluoropyrrolidin-1-yl]ethyl]phenyl]ethyl]thieno[3,2-d]pyrimidin-4(3H)-one], 160 to 163 °C.
As for `CC(=O)N(C)N(C(=O)OC(C)(C)C)c1ccc(CCn2cnc3cc(-c4ccc(Cl)cc4)sc3c2=O)cc1` [Example 20], the figure is 193 to 194 °C; as for `O=C1CNCCN1Cc1ccc(CCn2cnc3cc(-c4ccc(Cl)cc4)sc3c2=O)cc1` (as salt: hydrochloride) [Example 38, 6-(4-chlorophenyl)-3-(2-{4-[(2-oxopiperazin-1-yl)methyl]phenyl}ethyl)thieno[3,2-d]pyrimidin-4(3H)-one dihydrochloride], 271 to 278 °C.
Consider `CNC(=O)CN(C)Cc1ccc(CCn2cnc3cc(-c4ccc(Cl)cc4)sc3c2=O)cc1` [Example 31, N^2-(4-{2-[6-(4-chlorophenyl)-4-oxothieno[3,2-d]pyrimidin-3(4H) -yl]ethyl}benzyl)-N,N^2-dimethylglycinamide], for which the melting point is 146 to 149 °C.
The result for `CN(Cc1ccc(CCn2cnc3cc(-c4ccc(Cl)cc4)sc3c2=O)cc1)C(=O)C1CC1` [Example 7, N-(4-{2-[6-(4-chlorophenyl)-4-oxothieno[3,2-d]pyrimidin-3(4H) -yl]ethyl}benzyl)-N-methylcyclopropanecarboxamide] reads 178 °C; that for `CNC1Cc2ccc(C(=O)Cn3cnc4cc(-c5ccc(Cl)cc5)sc4c3=O)cc2C1` (centres unmarked) [Example 16, 6-(4-chlorophenyl)-3-{2-[2-(methylamino)-2,3-dihydro-1H-inden-5-yl]-2-oxoethyl}thieno[3,2-d]pyrimidin-4(3H)-one], 226 to 229 °C; that for `CN(C(=O)C(F)(F)F)C1Cc2ccc(C(=O)Cn3cnc4cc(-c5ccc(Cl)cc5)sc4c3=O)cc2C1` (centres unmarked) [Example 15, N-(5-{[6-(4-chlorophenyl)-4-oxothieno[3,2-d]pyrimidin-3(4H) -yl]acetyl}-2,3-dihydro-1H-inden-2-yl)-2,2,2-trifluoro-N -methylacetamide], 245 to 248 °C.
The result for `CC(=O)N1CCN(Cc2ccc(CCn3cnc4cc(-c5ccc(Cl)cc5)sc4c3=O)cc2)C(=O)C1` [Example 39, 3-(2-{4-[(4-acetyl-2-oxopiperazin-1-yl)methyl]phenyl}ethyl)-6-(4-chlorophenyl)thieno[3,2-d]pyrimidin-4(3H)-one] reads 204 to 207 °C.
The result for `CC(C)(C)OC(=O)N1CCN(Cc2ccc(CCn3cnc4cc(-c5ccc(Cl)cc5)sc4c3=O)cc2)C(=O)C1` [Example 37, tert-butyl 4-(4-{2-[6-(4-chlorophenyl)-4-oxothieno[3,2-d]pyrimidin-3(4H)-yl]ethyl}benzyl)-3-oxopiperazine-1-carboxylate] reads 165 to 170 °C.
As for `O=C1CN(Cc2ccc(CCn3cnc4cc(-c5ccc(Cl)cc5)sc4c3=O)cc2)CCN1` [Example 35, 6-(4-chlorophenyl)-3-(2-{4-[(3-oxopiperazin-1-yl)methyl]phenyl}ethyl)thieno[3,2-d]pyrimidin-4(3H)-one], the melting point lay within 232 to 234 °C.
The result for `CN(Cc1ccc(CCn2cnc3cc(-c4ccc(Cl)cc4)sc3c2=O)cc1)C(=O)CC(C)(C)C` [Example 5, N-(4-{2-[6-(4-chlorophenyl)-4-oxothieno[3,2-d]pyrimidin-3(4H)-yl]ethyl}benzyl)-N,3,3-trimethylbutanamide] reads 181 °C; that for `O=C1C[C@@H](O)CN1Cc1ccc(CCn2cnc3cc(-c4ccc(Cl)cc4)sc3c2=O)cc1` [Example 33, 6-(4-chlorophenyl)-3-[2-(4-{[(4R)-4-hydroxy-2-oxopyrrolidin-1-yl]methyl}phenyl)ethyl]thieno[3,2-d]pyrimidin-4(3H)-one], 243 to 246 °C.
As for `CN(Cc1ccc(C(=O)Cn2cnc3cc(-c4ccc(Cl)cc4)sc3c2=O)cc1)C(=O)C(F)(F)F` [Example 12, N-(4-{[6-(4-chlorophenyl)-4-oxothieno[3,2-d]pyrimidin-3(4H) -yl]acetyl}benzyl)-2,2,2-trifluoro-N-methylacetamide], the figure is 235 to 238 °C; as for `O=C1CCCCN1Cc1ccc(CCn2cnc3cc(-c4ccc(F)cc4)sc3c2=O)cc1` [Example 26, 6-(4-fluorophenyl)-3-(2-{4-[(2-oxopiperidin-1-yl)methyl]phenyl}ethyl)thieno[3,2-d]pyrimidin-4(3H)-one], 216 to 217 °C.
As for `CN(C)C(=O)N(C)Cc1ccc(CCn2cnc3cc(-c4ccc(Cl)cc4)sc3c2=O)cc1` [Example 8, N-(4-{2-[6-(4-chlorophenyl)-4-oxothieno[3,2-d]pyrimidin-3(4H) -yl]ethyl}benzyl)-N,N′,N′-trimethylurea], the figure is 160 to 165 °C.
Take `O=C(Cn1cnc2cc(-c3ccc(Cl)cc3)sc2c1=O)c1ccc2c(c1)CCN(C(=O)C(F)(F)F)CC2` [Example 10, 6-(4-chlorophenyl)-3-{2-oxo-2-[3-(trifluoroacetyl) -2,3,4,5-tetrahydro-1H-3-benzazepin-7-yl]ethyl}thieno[3,2-d]pyrimidin-4(3H)-one]: the melting point lay in the range of 285 to 287 °C.
As for `CC(=O)NC1CCN(Cc2ccc(CCn3cnc4cc(-c5ccc(Cl)cc5)sc4c3=O)cc2)C1` (centres unmarked) [Example 36, N-[1-(4-{2-[6-(4-chlorophenyl)-4-oxothieno[3,2-d]pyrimidin-3(4H)-yl]ethyl}benzyl)pyrrolidin-3-yl]acetamide], the figure is 196 to 198 °C.
`CN(CC(=O)O)Cc1ccc(CCn2cnc3cc(-c4ccc(Cl)cc4)sc3c2=O)cc1` (as salt: hydrochloride) [Example 30, N-(4-{2-[6-(4-chlorophenyl)-4-oxothieno[3,2-d]pyrimidin-3(4H) -yl]ethyl}benzyl)-N-methylglycine dihydrochloride] displayed a melting point of 252 to 253 °C.
The result for `CNCC(=O)N(C)Cc1ccc(CCn2cnc3cc(-c4ccc(Cl)cc4)sc3c2=O)cc1` [Example 28, N-(4-{2-[6-(4-chlorophenyl)-4-oxothieno[3,2-d]pyrimidin-3(4H) -yl]ethyl}benzyl)-N,N^2-dimethylglycinamide] reads 166 to 169 °C; that for `CN(Cc1ccc(CCn2cnc3cc(-c4ccc(Cl)cc4)sc3c2=O)cc1)C(=O)OC(C)(C)C` [Example 3, tert-butyl N-(4-{2-[6-(4-chlorophenyl)-4-oxothieno[3,2-d]pyrimidin-3(4H)-yl]ethyl}benzyl)-N-methylcarbamate], 206 to 209 °C.
As for `CNCc1ccc(CCn2cnc3cc(-c4ccc(Cl)cc4)sc3c2=O)cc1` (as salt: hydrochloride) [Example 4, 6-(4-chlorophenyl)-3-(2-{4-[(methylamino)methyl]phenyl}ethyl)thieno[3,2-d]pyrimidin-4(3H)-one dihydrochloride], the figure is above 300 °C; as for `CN(CC(=O)OC(C)(C)C)Cc1ccc(CCn2cnc3cc(-c4ccc(Cl)cc4)sc3c2=O)cc1` [Example 29, N-(4-{2-[6-(4-chlorophenyl)-4-oxothieno[3,2-d]pyrimidin-3(4H) -yl]ethyl}benzyl)-N-methylglycine tert-butyl ester], 130 °C.
In turn, `CN(Cc1ccc(CCn2cnc3cc(-c4ccc(Cl)cc4)sc3c2=O)cc1)S(C)(=O)=O` [Example 24, N-(4-{2-[6-(4-chlorophenyl)-4-oxothieno[3,2-d]pyrimidin-3(4H) -yl]ethyl}benzyl)-N-methylmethanesulfonamide] showed a melting point of 230 to 232 °C.
